Like-named read-outs stand apart in the source and are kept apart here.
Columns and labels:
AR [1] = target: T1, AR (Homo sapiens, UniProt P10275); assay: cell-based; type: cell-based
Protocol: It is well established that PSA levels are indicators of AR activities in prostate cancer. […] The LNCaP-AR cells are a line of lymph node carcinoma of prostate cells transduced with a plasmid that makes express androgen receptors. […] After four days incubation, secreted PSA levels were assayed using PSA ELISA kits (American Qualex, San Clemente, Calif.)

1AR cell line = assay: Luciferase activity in the 1AR cell line; type: cell-based; settings: for a given dose
4AR cell line = assay: Luciferase activity in the 4AR cell line; type: cell-based; settings: for a given dose, 1.25 to 10 μmol
AR [2] = target: T1, AR; assay: cell-based; type: cell-based; remark: listed apart in the source
Protocol: The compounds were subjected to tests using an artificial AR response reporter system in a hormone refractory prostate cancer cell line. […] After two days of incubation, reporter activities were assayed.

AR [3] = target: T1, AR; assay: cell-based
Description: Table 2 lists the agonistic activities of different compounds.

AR [4] = target: T1, AR; assay: cell-based; type: cell-based; remark: listed apart in the source
[5] = target: glucocorticoid receptor (GR) (Homo sapiens (Human), UniProt P04150); assay: GR response reporter in LNCaP cells over expressing glucocorticoid receptor; type: cell-based; settings: reporter induced by dexamethasone
DU-145 cells = assay: MTS growth assay, DU-145 cells; type: cell-based; settings: prostate cancer cell line lacking AR expression
MCF7 = assay: Growth effect on MCF7 cells; type: cell-based; settings: breast cancer cells
SkBr3 = assay: Growth effect on SkBr3 cells; type: cell-based; settings: breast cancer cells
3T3 = assay: Growth effect on 3T3 fibroblasts; type: cell-based; settings: normal mouse fibroblast cell line
LNCaP cells = assay: MTS growth assay, hormone sensitive LNCaP cells; type: cell-based; settings: FIG. 10, MTS
Protocol: FIG. 10. Inhibitory effect on growth of hormone sensitive prostate cancer cells. […] After 4 days of incubation, cell growth was measured by MTS assay.

[6] = test system: AR-overexpressed LNCaP xenograft tumors; assay: AR-overexpressed LNCaP xenograft model in castrated male SCID mice, oral once daily; type: in vivo; settings: 44 days
Protocol: FIG. 7. […] Mice with established LN-AR xenograft tumors were randomized and treated with indicated compounds orally once daily. Tumor size was measured by caliber.
FIG. 8. […] The tumors were taken out from the mice after 44 days of treatment, tumor lysate was extracted, and PSA level in tissue lysate was determined by ELISA.
First we examined this compound on xenograft tumors established from AR-overexpressed LNCaP cells. The engineered cells in Matrigel (Collaborative Biomedical) were injected subcutaneously into the flanks of the castrated male SCID mice. Tumor size was measured weekly in three dimensions using calipers. After xenograft tumors established (tumor size reached at least 40 mm^3), mice with tumors were randomized and treated with different doses of compounds orally once daily.

[7] = test system: hormone refractory LAPC4 xenograft; assay: Hormone refractory LAPC4 xenograft model; type: in vivo, mice; settings: 1 mg per kg orally once daily, 17 days
Protocol: FIG. 9. […] (A), tumor size was measured by caliber. (B), the tumors were taken out from the mice after 17 days of treatment, tumor lysate was extracted, and PSA level in tissue lysate was determined by ELISA.
This model was established from passaging of hormone sensitive prostate cancer in castrated mice, which mimics the clinical progression of prostate cancer (2).

[8] = Pharmacokinetics in FVB mice, drug concentration by HPLC; settings: mice
Protocol: Mice were divided into groups of three for each time points. Two mice were not treated with drug and two other mice were treated with vehicle solution. […]
The drug was dissolved in a mixture 1:5:14 of DMSO:PEG400:H20. (Vehicle solution) and was administered into mice through the tail vein. The animals are warmed under a heat lamp for approximately 20 minutes prior to treatment to dilate their tail vein. […] After drug administration, the animals were euthanized via CO2 inhalation at different timepoints: […], […], 2 h, 6 h, 16 h. Animals were immediately bleed after exposure to CO2 via cardiac puncture (1 ml BD syringe+27 G ⅝ needle).
The samples for HPLC analysis were prepared according to the following procedure: • Blood cells were separated from serum by centrifugation. • To 400 μl of serum were added 80 μl of a 10 μM solution of an internal standard and 520 μl of acetonitrile. Precipitation occurred. • The mixture was vortexed for 3 minutes and then placed under ultrasound for 30 minutes. • The solid particles were filtered off or were separated by centrifugation. • The filtrate was dried under an argon flow to dryness.

T1 sequence (P10275 whole entry, looked up): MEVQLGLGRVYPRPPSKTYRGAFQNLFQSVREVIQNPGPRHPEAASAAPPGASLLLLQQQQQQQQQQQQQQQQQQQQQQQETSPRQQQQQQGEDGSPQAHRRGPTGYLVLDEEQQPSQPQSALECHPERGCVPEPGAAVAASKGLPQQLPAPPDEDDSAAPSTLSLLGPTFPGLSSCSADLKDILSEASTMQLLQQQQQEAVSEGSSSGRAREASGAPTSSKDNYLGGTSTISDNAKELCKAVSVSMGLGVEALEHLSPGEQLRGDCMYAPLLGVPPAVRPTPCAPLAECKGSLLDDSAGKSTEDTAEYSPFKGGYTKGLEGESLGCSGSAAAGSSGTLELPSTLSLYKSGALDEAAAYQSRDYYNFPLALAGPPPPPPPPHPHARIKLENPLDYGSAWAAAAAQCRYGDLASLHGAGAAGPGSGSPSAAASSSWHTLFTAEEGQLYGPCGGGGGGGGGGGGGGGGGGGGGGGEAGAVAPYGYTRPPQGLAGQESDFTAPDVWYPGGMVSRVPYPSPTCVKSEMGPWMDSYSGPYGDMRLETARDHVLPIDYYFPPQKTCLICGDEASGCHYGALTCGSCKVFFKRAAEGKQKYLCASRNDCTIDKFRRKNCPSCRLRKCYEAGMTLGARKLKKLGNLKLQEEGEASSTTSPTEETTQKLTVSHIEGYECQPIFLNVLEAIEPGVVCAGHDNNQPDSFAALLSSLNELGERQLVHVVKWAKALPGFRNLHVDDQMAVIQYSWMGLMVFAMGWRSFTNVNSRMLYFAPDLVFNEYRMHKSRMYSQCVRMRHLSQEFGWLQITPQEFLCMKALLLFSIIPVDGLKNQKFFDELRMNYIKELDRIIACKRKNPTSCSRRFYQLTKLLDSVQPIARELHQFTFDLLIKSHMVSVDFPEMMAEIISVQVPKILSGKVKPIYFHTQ
glucocorticoid receptor (GR), sequence (P04150 whole entry, species assumed): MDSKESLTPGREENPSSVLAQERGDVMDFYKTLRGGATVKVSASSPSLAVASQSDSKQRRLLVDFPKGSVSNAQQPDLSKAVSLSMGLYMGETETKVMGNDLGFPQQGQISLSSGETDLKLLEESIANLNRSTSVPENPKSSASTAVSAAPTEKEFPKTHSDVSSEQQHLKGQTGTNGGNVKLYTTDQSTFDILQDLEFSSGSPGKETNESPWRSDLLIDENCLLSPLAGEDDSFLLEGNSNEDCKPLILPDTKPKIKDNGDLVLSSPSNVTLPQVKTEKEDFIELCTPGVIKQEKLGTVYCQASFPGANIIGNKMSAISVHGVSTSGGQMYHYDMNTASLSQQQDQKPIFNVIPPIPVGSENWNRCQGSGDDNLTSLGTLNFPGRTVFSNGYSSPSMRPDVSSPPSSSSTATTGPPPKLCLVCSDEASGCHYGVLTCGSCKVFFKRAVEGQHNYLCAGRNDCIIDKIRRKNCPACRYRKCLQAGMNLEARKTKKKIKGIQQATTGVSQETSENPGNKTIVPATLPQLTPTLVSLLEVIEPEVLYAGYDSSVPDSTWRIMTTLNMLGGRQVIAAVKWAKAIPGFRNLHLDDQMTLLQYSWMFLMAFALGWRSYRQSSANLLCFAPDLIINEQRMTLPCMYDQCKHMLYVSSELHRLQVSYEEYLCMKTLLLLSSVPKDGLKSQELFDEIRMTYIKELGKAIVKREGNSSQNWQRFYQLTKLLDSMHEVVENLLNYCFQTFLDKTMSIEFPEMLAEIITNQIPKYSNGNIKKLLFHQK

CC1(C)C(=O)N(c2ccc(C#N)c(C(F)(F)F)c2)C(=S)N1c1ccc(O)cc1 [RD8, 4-[3-(4-hydroxyphenyl)-4,4-dimethyl-5-oxo-2-thioxoimidazolidin-1-yl]-2-trifluoromethylbenzonitrile]
PSA level, LN/AR cell line, comparison (AR [1]; for a given dose / concentration): less than the PSA level upon exposure to RD9 | Luciferase activity, 1AR cell line (1AR cell line): less than the luciferase activity upon exposure to RD9 | Luciferase activity, 4AR cell line (FIG. 26) (4AR cell line): less than the luciferase activity upon exposure to RD9

Cc1ccc(N2C(=S)N(c3ccc(C#N)c(C(F)(F)F)c3)C(=O)C23CCC3)cc1 [RD37, 4-(8-oxo-6-thioxo-5-(4-methylphenyl)-5,7-diazaspiro[3.4]oct-7-yl)-2-trifluoromethylbenzonitrile]
IC50 (AR [2]): 124 nM | IC50 compared with bicalutamide (FIG. 15) (AR [2]; assay not specified): much lower than the IC50 for bicalutamide | IC50 (AR [1]): 128 nM | Rank order, most active to least active, relative PSA level (FIG. 4) (AR [1]; 500 nM): RD138>RD131>RD37>RD133>RD134>RD137>RD138>RD135>bicalutamide | Decrease in PSA level of LNCaP-AR cells, comparison (FIG. 4) (AR [1]; at concentrations of 1000 nM): greater decrease in PSA level of LNCaP-AR cells than RD133, RD134, and RD138 | Agonistic activity on AR, reporter (AR [3]; LN-AR, absence of R1881): no agonistic activity | fold induction at 0.1 µM (AR [3]; read-out: Fold induction of AR response reporter, 0.1 μM): 0.87 | fold induction at 1 µM (AR [3]; read-out: Fold induction of AR response reporter, 1 μM): 1.19 | fold induction at 10 µM (AR [3]; read-out: Fold induction of AR response reporter, 10 μM): 0.89 | Agonistic activity, secreted PSA (AR [4]; AR over expressed LNCaP, absence of R1881): no agonistic activities | fold induction at 0.1 µM (AR [4]; LNCaP, read-out: Fold induction of endogenous PSA, 0.1 μM): 1.25 | fold induction at 1 µM (AR [4]; LNCaP, read-out: Fold induction of endogenous PSA, 1 μM): 1.2 | fold induction at 10 µM (AR [4]; LNCaP, read-out: Fold induction of endogenous PSA, 10 μM): 1.15 | Effect on GR response reporter [5]: no effect on GR | Growth inhibitory effect on DU-145 cells (DU-145 cells): no growth inhibitory effect | Growth effect on MCF7 (MCF7): no growth effect | Growth effect on SkBr3 (SkBr3): no growth effect | Growth effect on 3T3 (3T3): no growth effect | Potency relative to bicalutamide on hormone sensitive prostate cancer cells (LNCaP cells): 10 fold | Growth of LNCaP-AR xenograft tumors (FIG. 7a) ([6]; 1 mg per kg orally once daily): strongly inhibited growth | Dose dependence of tumor growth inhibition (FIG. 7b) ([6]; 0.1, 1 or 10 mg per kg): dose-dependent | PSA expression in xenograft tumors (FIG. 8) ([6]; 0.1, 1 or 10 mg per kg, tumor lysate ELISA): inhibited PSA expression | Growth of hormone refractory LAPC4 xenograft (FIG. 9a) [7]: strongly inhibited | PSA expression in hormone refractory LAPC4 xenograft (FIG. 9b) [7]: strongly inhibited | Pharmacokinetic behavior, residence time in blood [8]: metabolize fast

— patent US9126941B2, “Treatment of hyperproliferative disorders with diarylhydantoin compounds” (The Regents of the University of California, priority 2005, dated 2015)
